In US9650395B2, “Antibacterial compounds and methods for use” (PTC Therapeutics, Inc., priority 2011, dated 2017):
≈ marks a conversion by molar mass, not a printed value. Read-outs that look alike come from different tables or passages of the source.

How the values were obtained:
[1] = tested on: quinolone resistant E. coli LZ3111; test: Antibacterial activity, MIC, quinolone resistant E. coli LZ3111; assay type: cell-based, Escherichia coli; conditions: Escherichia coli, read-out: MIC, LZ3111
Description: The antibacterial activity from a microbroth dilution method may be presented as the minimum inhibitory concentration (MIC in […]). The MIC value is the lowest concentration of a drug which prevents macroscopically visible bacterial growth under test conditions.
Mutations in these regions are known to confer a high level resistance to the quinolone class of antibiotics.

[2] = tested on: super sensitive Gram-negative Escherichia coli (E. coli) BAS849; test: Antibacterial activity, microbroth dilution MIC, E. coli BAS849; assay type: cell-based; conditions: Escherichia coli, read-out: MIC, BAS849
[3] = tested on: Gram-positive Staphylococcus aureus (S. aureus) 29213; test: Antibacterial activity, microbroth dilution MIC, S. aureus 29213; assay type: cell-based; conditions: Staphylococcus aureus; S. aureus 29213, microbroth dilution; read-out: MIC, 29213
[4] = tested on: control Gram-negative E. coli 25922 strain; test: Antibacterial activity, microbroth dilution MIC, E. coli 25922; assay type: cell-based, Escherichia coli; conditions: Escherichia coli; E. coli 25922, microbroth dilution; read-out: MIC, 25922
[5] = E. coli BAS849, microbroth dilution

| Compound | MIC [1] [µg/mL] | MIC [2, 5] [µg/mL] | MIC [3] [µg/mL] | MIC [4] [µg/mL] | MIC [2] [µg/mL] |
| --- | --- | --- | --- | --- | --- |
| CCc1cc(C(=O)O)c(=O)[nH]c1-c1ccc(OC)cc1F [Cpd 30, 5-ethyl-6-(2-fluoro-4-methoxyphenyl)-2-oxo-1,2-dihydropyridine-3-carboxylic acid] | 12.5 to 150 (≈ 42.9 to 515 µM) | 1 to 3.5 (≈ 3.43 to 12 µM) | 12.5 to 150 (≈ 42.9 to 515 µM) | 12.5 to 150 (≈ 42.9 to 515 µM) |  |
| CCc1c(-c2c(OC)cc(OC)cc2OC)[nH]c(=O)c(C(=O)O)c1O [Cpd 41, 5-ethyl-4-hydroxy-2-oxo-6-(2,4,6-trimethoxyphenyl)-1,2-dihydropyridine-3-carboxylic acid] | 12.5 to 150 (≈ 35.8 to 429 µM) | 12.5 to 150 (≈ 35.8 to 429 µM) | 12.5 to 150 (≈ 35.8 to 429 µM) | 12.5 to 150 (≈ 35.8 to 429 µM) |  |
| CCc1c(-c2ccc(OC)c(OC)c2OC)[nH]c(=O)c(C(=O)O)c1O [Cpd 42, 5-ethyl-4-hydroxy-2-oxo-6-(2,3,4-trimethoxyphenyl)-1,2-dihydropyridine-3-carboxylic acid] | 12.5 to 150 (≈ 35.8 to 429 µM) | < 1 | 1 to 3.5 (≈ 2.86 to 10 µM) | 12.5 to 150 (≈ 35.8 to 429 µM) |  |
| CCc1c(-c2ccc(N3CCCCC3)cc2F)[nH]c(=O)c(C(=O)O)c1O [Cpd 44, 5-ethyl-6-[2-fluoro-4-(piperidin-1-yl)phenyl]-4-hydroxy-2-oxo-1,2-dihydropyridine-3-carboxylic acid] | 12.5 to 150 (≈ 34.7 to 416 µM) | 1 to 3.5 (≈ 2.77 to 9.71 µM) | 1 to 3.5 (≈ 2.77 to 9.71 µM) | 12.5 to 150 (≈ 34.7 to 416 µM) |  |
| CCc1c(-c2ccc(N3CCCC3)cc2OC)[nH]c(=O)c(C(=O)O)c1O [Cpd 45, 5-ethyl-4-hydroxy-6-[2-methoxy-4-(pyrrolidin-1-yl)phenyl]-2-oxo-1,2-dihydropyridine-3-carboxylic acid] | 12.5 to 150 (≈ 34.9 to 419 µM) | 3.5 to 12.5 (≈ 9.77 to 34.9 µM) | 3.5 to 12.5 (≈ 9.77 to 34.9 µM) | 12.5 to 150 (≈ 34.9 to 419 µM) |  |
| CCc1c(-c2ccc(N3CCCCC3)cc2OC)[nH]c(=O)c(C(=O)O)c1O [Cpd 49, 5-ethyl-4-hydroxy-6-[2-methoxy-4-(piperidin-1-yl)phenyl]-2-oxo-1,2-dihydropyridine-3-carboxylic acid] | 12.5 to 150 (≈ 33.6 to 403 µM) | 3.5 to 12.5 (≈ 9.4 to 33.6 µM) | 3.5 to 12.5 (≈ 9.4 to 33.6 µM) | 12.5 to 150 (≈ 33.6 to 403 µM) |  |
| CCc1cc(C(=O)O)c(=O)[nH]c1-c1ccc(N2CCCC2)cc1OC [Cpd 50, 5-ethyl-6-[2-methoxy-4-(pyrrolidin-1-yl)phenyl]-2-oxo-1,2-dihydropyridine-3-carboxylic acid] | 12.5 to 150 (≈ 36.5 to 438 µM) | 12.5 to 150 (≈ 36.5 to 438 µM) | 12.5 to 150 (≈ 36.5 to 438 µM) | 12.5 to 150 (≈ 36.5 to 438 µM) |  |
| CCc1c(-c2ccc(N(C)C)cc2F)[nH]c(=O)c(C(=O)O)c1O [Cpd 55, 6-[4-(dimethylamino)-2-fluorophenyl]-5-ethyl-4-hydroxy-2-oxo-1,2-dihydropyridine-3-carboxylic acid] | 12.5 to 150 (≈ 39 to 468 µM) | < 1 | 3.5 to 12.5 (≈ 10.9 to 39 µM) | 12.5 to 150 (≈ 39 to 468 µM) |  |
| CCc1cc(C(=O)O)c(=O)[nH]c1-c1ccc(N2CCCCC2)c(OC)c1 [Cpd 68, 5-ethyl-6-[3-methoxy-4-(piperidin-1-yl)phenyl]-2-oxo-1,2-dihydropyridine-3-carboxylic acid] | 12.5 to 150 (≈ 35.1 to 421 µM) | 12.5 to 150 (≈ 35.1 to 421 µM) | 12.5 to 150 (≈ 35.1 to 421 µM) | 12.5 to 150 (≈ 35.1 to 421 µM) |  |
| CCc1c(-c2ccc(N3CCOCC3)cn2)[nH]c(=O)c(C(=O)O)c1O [Cpd 112, 5-ethyl-4-hydroxy-6-(5-morpholinopyridin-2-yl)-2-oxo-1,2-dihydropyridine-3-carboxylic acid] | 12.5 to 150 (≈ 36.2 to 434 µM) | < 1 | 12.5 to 150 (≈ 36.2 to 434 µM) | 12.5 to 150 (≈ 36.2 to 434 µM) |  |
| CCc1c(-c2ccc(N3CCNCC3)cn2)[nH]c(=O)c(C(=O)O)c1O [Cpd 113, 5-ethyl-4-hydroxy-2-oxo-6-[5-(piperazin-1-yl)pyridin-2-yl]-1,2-dihydropyridine-3-carboxylic acid] | 12.5 to 150 (≈ 36.3 to 436 µM) | 3.5 to 12.5 (≈ 10.2 to 36.3 µM) | 12.5 to 150 (≈ 36.3 to 436 µM) | 3.5 to 12.5 (≈ 10.2 to 36.3 µM) |  |
| CCc1cc(C(=O)O)c(=O)[nH]c1-c1ccc(N2C(=O)CCC2C)cc1 (stereo not drawn) [Cpd 116, 5-ethyl-6-[4-(2-methyl-5-oxopyrrolidin-1-yl)phenyl]-2-oxo-1,2-dihydropyridine-3-carboxylic acid] | 12.5 to 150 (≈ 36.7 to 441 µM) | 12.5 to 150 (≈ 36.7 to 441 µM) | 12.5 to 150 (≈ 36.7 to 441 µM) | 12.5 to 150 (≈ 36.7 to 441 µM) |  |
| CCc1cc(C(=O)O)c(=O)[nH]c1-c1ccc(N2CC[C@H](O)C2=O)cc1 [Cpd 117, 5-ethyl-6-{4-[(3S)-3-hydroxy-2-oxopyrrolidin-1-yl]phenyl}-2-oxo-1,2-dihydropyridine-3-carboxylic acid] | 12.5 to 150 (≈ 36.5 to 438 µM) | 12.5 to 150 (≈ 36.5 to 438 µM) | 12.5 to 150 (≈ 36.5 to 438 µM) | 12.5 to 150 (≈ 36.5 to 438 µM) |  |
| CCc1cc(C(=O)O)c(=O)[nH]c1-c1ccc(N2C[C@@H](N)[C@@H](OC)C2)cc1.Cl [Cpd 135, 6-{4-[(3R,4S)-3-amino-4-methoxypyrrolidin-1-yl]phenyl}-5-ethyl-2-oxo-1,2-dihydropyridine-3-carboxylic acid hydrochloride] | 12.5 to 150 | < 1 | 12.5 to 150 | 12.5 to 150 |  |
| CCc1cc(C(=O)O)c(=O)[nH]c1-c1ccc(N2C[C@@H](N)[C@@H](O)C2)cc1.O=C(O)C(F)(F)F [Cpd 136, 6-{4-[(3R,4S)-3-amino-4-hydroxypyrrolidin-1-yl]phenyl}-5-ethyl-2-oxo-1,2-dihydropyridine-3-carboxylic acid trifluoroacetate] | 12.5 to 150 |  | 12.5 to 150 | 12.5 to 150 | 1 to 3.5 |
| CCc1cc(C(=O)O)c(=O)[nH]c1-c1ccc(NCCN(C)C)cc1 [Cpd 159, 6-(4-{[2-(dimethylamino)ethyl]amino}phenyl)-5-ethyl-2-oxo-1,2-dihydropyridine-3-carboxylic acid] | 12.5 to 150 (≈ 37.9 to 455 µM) | 1 to 3.5 (≈ 3.04 to 10.6 µM) | 12.5 to 150 (≈ 37.9 to 455 µM) | 12.5 to 150 (≈ 37.9 to 455 µM) |  |
| CC(C)c1cc(C(=O)O)c(=O)[nH]c1-c1ccc(N(C)CCN(C)C)cc1 [Cpd 165, 6-(4-{[2-(dimethylamino)ethyl](methyl)amino}phenyl)-2-oxo-5-(propan-2-yl)-1,2-dihydropyridine-3-carboxylic acid] | 12.5 to 150 (≈ 35 to 420 µM) | 1 to 3.5 (≈ 2.8 to 9.79 µM) | 12.5 to 150 (≈ 35 to 420 µM) | 12.5 to 150 (≈ 35 to 420 µM) |  |
| CCc1cc(C(=O)O)c(=O)[nH]c1-c1ccc(N2CCC(C)(N)C2)cc1.O=C(O)C(F)(F)F (stereo not drawn) [Cpd 166, 6-[4-(3-amino-3-methylpyrrolidin-1-yl)phenyl]-5-ethyl-2-oxo-1,2-dihydropyridine-3-carboxylic acid trifluoroacetate] | 12.5 to 150 |  | 12.5 to 150 | 3.5 to 12.5 | < 1 |
| CCc1cc(C(=O)O)c(=O)[nH]c1-c1ccc(N2CC(NC(=O)N(C)CC(=O)O)C2)cc1 [Cpd 167, 6-[4-(3-{[(carboxymethyl)(methyl)carbamoyl]amino}azetidin-1-yl)phenyl]-5-ethyl-2-oxo-1,2-dihydropyridine-3-carboxylic acid] | 12.5 to 150 (≈ 29.2 to 350 µM) | 1 to 3.5 (≈ 2.33 to 8.17 µM) | 12.5 to 150 (≈ 29.2 to 350 µM) | 12.5 to 150 (≈ 29.2 to 350 µM) |  |
| CCc1cc(C(=O)O)c(=O)[nH]c1-c1ccc(N2CC(n3nnc(C)n3)C2)cc1 [Cpd 168, 5-ethyl-6-{4-[3-(5-methyl-2H-tetrazol-2-yl)azetidin-1-yl]phenyl}-2-oxo-1,2-dihydropyridine-3-carboxylic acid] | 12.5 to 150 (≈ 32.9 to 394 µM) | < 1 | 12.5 to 150 (≈ 32.9 to 394 µM) | 12.5 to 150 (≈ 32.9 to 394 µM) |  |
| CCc1cc(C(=O)O)c(=O)[nH]c1-c1ccc(N2CC3CC3(N)C2)cc1.Cl (stereo not drawn) [Cpd 169, 6-[4-(1-amino-3-azabicyclo[3.1.0]hex-3-yl)phenyl]-5-ethyl-2-oxo-1,2-dihydropyridine-3-carboxylic acid hydrochloride] | 12.5 to 150 | < 1 | 12.5 to 150 | 1 to 3.5 |  |
| CCc1cc(C(=O)O)c(=O)[nH]c1-c1ccc(N2CCC(N3CCCC3)C2)cc1 (stereo not drawn) [Cpd 175, 6-[4-(1,3′-bipyrrolidin-1′-yl)phenyl]-5-ethyl-2-oxo-1,2-dihydropyridine-3-carboxylic acid] | 12.5 to 150 (≈ 32.8 to 393 µM) | < 1 | 12.5 to 150 (≈ 32.8 to 393 µM) | 1 to 3.5 (≈ 2.62 to 9.17 µM) |  |
| CCc1cc(C(=O)O)c(=O)[nH]c1-c1ccc(N2CCC(CNC)C2)cc1.Cl (stereo not drawn) [Cpd 184, 5-ethyl-6-(4-{3-[(methylamino)methyl]pyrrolidin-1-yl}phenyl)-2-oxo-1,2-dihydropyridine-3-carboxylic acid hydrochloride] | 12.5 to 150 | 1 to 3.5 | 12.5 to 150 | 12.5 to 150 |  |
| CCc1cc(C(=O)O)c(=O)[nH]c1-c1ccc(N2CCC(CN)C2)cc1.O=C(O)C(F)(F)F (stereo not drawn) [Cpd 188, 6-{4-[3-(aminomethyl)pyrrolidin-1-yl]phenyl}-5-ethyl-2-oxo-1,2-dihydropyridine-3-carboxylic acid trifluoroacetate] | 12.5 to 150 |  | 12.5 to 150 | 3.5 to 12.5 | < 1 |
